Measured values from US9464077B2, “Nitrogen-containing aromatic heterocyclic compound” (Astellas Pharma Inc., priority 2012, dated 2016).

Assays:
FGFR3_S249C/NIH3T3 cells = test: Growth assay of cells with forced expression of mutant FGFR3; assay type: cell-based; conditions: Mus musculus, NIH3T3, 120 h; 5 days after addition, CellTiter-Glo; read-out: IC50 (growth inhibition)
Description: FGFR3_S249C/NIH3T3 cells were added to a 96-well spheroid plate (U bottom) at a concentration of 3000 cells/well/90 μL, and the compound solution (10 μL) was added thereto on the next day (final DMSO concentration: 0.1%). The compound solution was prepared by serially diluting the compound with DMSO at a 3-fold common ratio (9 portions and DMSO only) from the maximum concentration of 10 mM and then diluted 100-fold with a culture medium (D-MEM, 10% FBS). 5 days after the addition of the compound, the growth inhibition caused by the compound was evaluated by Promega (G7573) CellTiter-Glo™ Luminescent Cell Viability Assay.

[1] = system: UM-UC-14 (FGFR3_S249C-positive cells, bladder cancer); test: Antitumor test on UM-UC-14 subcutaneous xenograft; assay type: in vivo, nude mice; conditions: oral, 1 mg/kg/day, once a day, tumor volume at Day 11 vs Day 1
Description: 3×10^6 UM-UC-14 cells per 0.1 mL (PBS+matrigel, 1:1) were inoculated subcutaneously into the right flank of nude mice (CAnN, Cg-Foxn1nu/CrlCrlj (nu/nu), male, 4- to 5-week-old), and when their tumor size reached about 250 mm^3, drug administration was started (Day 1). The drug was administered once a day and the tumor size was measured with a caliper and the body weight was also measured every two or three days. The antitumor effect was finally determined based on the tumor volume (mm^3; minor axis (mm)×minor axis (mm)×major axis (mm)/2) at Day 11 (n=3-5). To the control group, 0.5% MC (methyl cellulose) was administered. […] “% regression” indicates what percentage of regression could be achieved compared with the tumor volume at Day 1. Here, the tumor volume at Day 1 means tumor volume immediately before drug administration.

[2] = system: FGFR3-TACC3_v1-expressing NIH3T3 cells; test: Anchorage-independent cell growth inhibition, spheroid plate; assay type: cell-based; conditions: Mus musculus, NIH3T3, 96 h, 4 days, read-out: growth inhibition rate v1
Description: (§1) Measurement for anchorage-independent cell growth (colony method, etc.) is known to be a system for investigating the anticancer action (pharmacological effect) of compounds (Clinical Oncology, second edition, Cancer and Chemotherapy Publishers Inc.). As a method for measuring the non-adhesive growth of cells, there is the following method using a spheroid plate as referred to above in place of the colony method.
(§2) In a 96-well spheroid plate (Sumilon Celltight Spheroid 96U; Sumitomo Bakelite), FGFR3-TACC3_v1-expressing NIH3T3 cells, FGFR3-TACC3_v2-expressing NIH3T3 cells, FGFR3-TACC3_v3-expressing NIH3T3 cells, and FGFR3-TACC3_v4-expressing NIH3T3 cells were each seeded at 1×10^3 cells per well in D-MEM media (Invitrogen) containing 10% fetal bovine serum. […] A well supplemented with only medium was also prepared for a positive control. Culturing was performed overnight in the presence of 5% CO2 at 37° C. followed by addition of test compounds (final concentrations: 100 nM, 10 nM, and 1 nM). As a negative control, DMSO used as a solvent for the compounds was added at the same concentration (0.1%) as in the case of addition of the compounds. Then, culturing was performed in the presence of 5% CO2 at 37° C. for 4 days, and a cell counting reagent (CellTiter-Glo™ Luminescent Cell Viability Assay; Promega) was added and the resulting mixture was stirred for 20 minutes followed by measurement with a luminometer.

[3] = system: FGFR3-TACC3_v2-expressing NIH3T3 cells; test: as above; assay type: cell-based; conditions: Mus musculus, NIH3T3, 96 h, 4 days, read-out: growth inhibition rate v2
Description: as §1, §2

[4] = system: FGFR3-TACC3_v3-expressing NIH3T3 cells; test: as above; assay type: cell-based; conditions: Mus musculus, NIH3T3, 96 h, 4 days, read-out: growth inhibition rate v3
Description: as §1, §2

[5] = system: FGFR3-TACC3_v4-expressing NIH3T3 cells; test: as above; assay type: cell-based; conditions: Mus musculus, NIH3T3, 96 h, 4 days, read-out: growth inhibition rate v4
Description: as §1, §2

[6] = system: bladder cancer patient-derived cell line RT4; test: as above; assay type: cell-based; conditions: Homo sapiens, 96 h, 4 days, read-out: growth inhibition rate RT4
[7] = system: FGFR3-TACC3_v1 (N-FLAG) fusion polypeptide; test: In vitro kinase activity inhibition (HTRF KinEASE-TK); assay type: biochemical, human; conditions: 100 μM ATP
[8] = system: FGFR3-TACC3_v2 (N-FLAG) fusion polypeptide; test: as above; assay type: biochemical, human; conditions: 100 μM ATP
[9] = system: FGFR3-TACC3_v3 (N-FLAG) fusion polypeptide; test: as above; assay type: biochemical, human; conditions: 100 μM ATP
[10] = system: FGFR3-BAIAP2L1-expressing NIH3T3 cells; test: Anchorage-independent cell growth inhibition, spheroid plate; assay type: cell-based; conditions: Mus musculus, NIH3T3, 96 h, 4 days, read-out: growth inhibition rate FGFR3-BAIAP2L1-expressing NIH3T3 Cells
Description: In a 96-well spheroid plate (Sumilon Celltight Spheroid 96U; Sumitomo Bakelite), FGFR3-BAIAP2L1-expressing NIH3T3 cells were seeded at 1×10^3 cells per well in D-MEM medium containing 10% fetal bovine serum. A well supplemented with only medium was also prepared for a positive control. Culturing was performed overnight in the presence of 5% CO2 at 37° C. followed by addition of test compounds (final concentrations: 100 nM, 10 nM, and 1 nM). As a negative control, DMSO used as a solvent for the compounds was added at the same concentration (0.1%) as in the case of addition of the compounds. Then, culturing was performed in the presence of 5% CO2 at 37° C. for 4 days, and a cell counting reagent (CellTiter-Glo™ Luminescent Cell Viability Assay; Promega) was added and the resulting mixture was stirred for 20 minutes followed by measurement with a luminometer.

human recombinant FGFR3 = human recombinant FGFR3 (Homo sapiens, UniProt P22607); test: FGFR3 enzyme assay (LabChip EZ Reader)
Sequence of human recombinant FGFR3 (P22607 23-806): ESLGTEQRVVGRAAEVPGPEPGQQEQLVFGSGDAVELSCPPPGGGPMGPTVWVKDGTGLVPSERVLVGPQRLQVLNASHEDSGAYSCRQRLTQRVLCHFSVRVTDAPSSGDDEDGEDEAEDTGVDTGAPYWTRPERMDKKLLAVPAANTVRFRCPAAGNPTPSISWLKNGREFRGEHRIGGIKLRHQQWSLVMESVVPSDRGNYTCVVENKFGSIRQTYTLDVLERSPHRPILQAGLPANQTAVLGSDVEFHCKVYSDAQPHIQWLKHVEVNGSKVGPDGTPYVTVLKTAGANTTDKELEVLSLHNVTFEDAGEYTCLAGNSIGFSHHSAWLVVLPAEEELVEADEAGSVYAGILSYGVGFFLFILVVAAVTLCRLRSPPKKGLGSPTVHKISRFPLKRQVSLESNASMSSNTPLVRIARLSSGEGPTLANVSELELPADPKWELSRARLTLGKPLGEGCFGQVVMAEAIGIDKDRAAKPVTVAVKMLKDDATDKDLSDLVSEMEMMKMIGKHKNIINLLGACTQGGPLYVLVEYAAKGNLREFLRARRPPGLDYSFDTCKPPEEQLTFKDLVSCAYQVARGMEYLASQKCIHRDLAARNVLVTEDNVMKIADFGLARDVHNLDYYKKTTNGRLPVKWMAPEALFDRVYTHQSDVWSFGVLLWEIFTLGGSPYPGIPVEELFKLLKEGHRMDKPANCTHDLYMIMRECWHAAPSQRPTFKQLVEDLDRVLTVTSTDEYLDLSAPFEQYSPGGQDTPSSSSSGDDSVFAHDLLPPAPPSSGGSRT
Description: The compound was diluted with a solution of dimethyl sulfoxide (DMSO) (10-fold common ratio, 4 portions) before dilution with a reaction buffer (100 mM HEPES (pH7.5), 0.003% Brij-35, 0.004% Tween 20, 0.5 mM DTT, and 10 mM MgCl2) so that the final DMSO concentration was 2%. To 4 μL of the compound solution in a 384-well plate, 2 μL each of FGFR1 enzyme (2 or 3 ng/μL), FGFR2 enzyme (2 ng/μL), or FGFR3 enzyme (6 ng/μL) which were diluted with the reaction buffer was added. […] After the reaction was stopped, the reaction mixture was measured with a LabChip EZ Reader. The IC50 values were calculated by non-linear regression based on the inhibition rates obtained.

COc1cc(OC)c(F)c(COc2cnc(Nc3ccc(N4CCC(NCCO)CC4)cc3)nc2)c1F [Example 299] was tested, and the IC50 (FGFR3_S249C/NIH3T3 cells) was 10 nM, the “Antitumor Activity, % regression” value [1] was 15% and the inhibition at 0.001 µM ([2]; 1 nM) was 9%. For the same compound, the inhibition at 0.01 µM ([2]; 10 nM) was 77%, the inhibition at 0.1 µM ([2]; 100 nM) was 92% and the inhibition at 0.001 µM ([3]; 1 nM) was 4%. For the same compound, the inhibition at 0.01 µM ([3]; 10 nM) was 63%, the inhibition at 0.1 µM ([3]; 100 nM) was 91% and the inhibition at 0.001 µM ([4]; 1 nM) was 5%. It also gave an inhibition at 0.01 µM ([4]; 10 nM) of 51%, an inhibition at 0.1 µM ([4]; 100 nM) of 89% and an inhibition at 0.001 µM ([5]; 1 nM) of 16%. It also gave an inhibition at 0.01 µM ([5]; 10 nM) of 82%, an inhibition at 0.1 µM ([5]; 100 nM) of 90% and an inhibition at 0.001 µM ([6]; 1 nM) of 8%. The inhibition at 0.01 µM ([6]; 10 nM) was 45%, the inhibition at 0.1 µM ([6]; 100 nM) was 63% and the “rate of inhibiting kinase activity v1” value ([7]; 1 nM) was 35%. For the same compound, the “rate of inhibiting kinase activity v1” value ([7]; 10 nM) was 84%, the “rate of inhibiting kinase activity v1” value ([7]; 100 nM) was 94% and the “rate of inhibiting kinase activity v2” value ([8]; 1 nM) was 20%. The “rate of inhibiting kinase activity v2” value ([8]; 10 nM) was 77%, the “rate of inhibiting kinase activity v2” value ([8]; 100 nM) was 95% and the “rate of inhibiting kinase activity v3” value ([9]; 1 nM) was 47%. For the same compound, the “rate of inhibiting kinase activity v3” value ([9]; 10 nM) was 88%, the “rate of inhibiting kinase activity v3” value ([9]; 100 nM) was 96% and the inhibition at 0.001 µM ([10]; 1 nM) was 15%. It also gave an inhibition at 0.01 µM ([10]; 10 nM) of 81%, an inhibition at 0.1 µM ([10]; 100 nM) of 91% and an IC50 (human recombinant FGFR3) of 2 nM.
